{
  "source": "patent US7323444B2",
  "about": "“Use of kahalalide compounds for the manufacture of a medicament for the treatment of psoriasis” (Pharma Mar, S.A.U., priority 2003, dated 2008)",
  "key": {"[1]": {"tested_on": "solid tumour cell lines", "conditions": "preclinical studies, in vitro; cited from earlier work"}, "[2]": {"conditions": "cited from earlier work"}, "[3]": {"tested_on": "psoriasis", "method": "This phase I Clinical and Pharmacokinetic study was designed to determine the safety of Kahalalide F administered as a weekly infusion over 1 hour in patients with solid tumours. This trial was addressed to any solid tumours and was designed as a classical escalation. The patient was a patient with a psoriasis history since more than 40 years."}},
  "data": [
    {"molecule": "C/C=C1\\NC(=O)[C@H](Cc2ccccc2)NC(=O)[C@@H](C(C)C)NC(=O)[C@@H](C(C)CC)NC(=O)[C@H](NC(=O)[C@H](NC(=O)[C@H](CCCN)NC(=O)[C@H]2CCCN2C(=O)[C@H](NC(=O)[C@@H](NC(=O)C(NC(=O)[C@H](NC(=O)CCCC(C)C)C(C)C)[C@@H](C)O)C(C)C)C(C)C)C(C)CC)C(C)OC(=O)[C@H](C(C)C)NC1=O", "note": "(stereo partly shown) [kahalalide F]", "values": [
      {"measurement": "activity against solid tumour cell lines", "setting": "[1]", "value": "significant activity"},
      {"measurement": "maximum tolerated dose (MTD)", "setting": "[2]; female mice, single bolus iv injection", "value": 0.28, "unit": "mg/kg"},
      {"measurement": "acute toxicity on repeated administration", "setting": "[2]; mice, 280 μg/kg once daily times five", "value": "without any apparent evidence of acute toxicity"},
      {"measurement": "toxicity of single doses just above the MTDiv", "setting": "[2]; mice, single iv doses just above MTD, signs of neurotoxicity followed by death", "value": "extremely toxic"},
      {"measurement": "psoriasic symptoms after the first infusion", "setting": "[3]; one patient, severe psoriasis, 650 μg/m^2 weekly iv infusion over 1 hour, after first infusion", "value": "quick improvement of the psoriasic symptoms"},
      {"measurement": "remission of the cutaneous plaques with the following infusions", "setting": "[3]; same patient, 650 μg/m^2 weekly, total of 7 infusions", "value": "nearly complete remission of the cutaneous plaques"},
      {"measurement": "psoriasis status after end of treatment", "setting": "[3]; same patient, two months after the last dose", "value": "still in a nearly complete remission situation"}
    ]}
  ]
}
